# Data from patent US20050249787A1, “Methods and compositions for reducing oxidative stress in an animal” (Nestec SA, priority 2004, published 2005).
# Marks after values point to notes of the source that are not given here.
# How the values were obtained:
# [1] = cited from earlier work
# [2] = Osteoarthritis diet study, plasma and synovial fluid markers and gait (Example 6); assay type: in vivo, dogs; details: 12 weeks
# Source text: A diet supplemented with astaxanthin may be shown to reduce inflammation and associated pain in osteoarthritis. […] At 12 weeks of treatment, plasma and synovial fluid samples are taken from each animal and assayed for total antioxidant activity, and levels of malionaldehyde, prostaglandin, isoprostanes, MMPs and TIMPs. Additionally, the gait of the dogs may be assessed using standard force plate analyses.
# NK cells = assay: Natural killer (NK) cell cytotoxicity from supplemented animals (Example 5); assay type: in vivo, dogs; details: diet containing astaxanthin vs control animals
# Procedure: (§1) To assess the effect of astaxanthin supplementation on immune function, dogs may be fed a diet containing astaxanthin and/or Vitamin E for 16 weeks. The amount of astaxanthin used may be 0, 1, 5, 10, 20, and 40 mg per animal per day. Various assays may be performed to assess immune function.
# In another assay, natural killer (NK) cell cytotoxicity is assessed for NK cells isolated from animals that are fed a diet including astaxanthin supplementation.
# [3] = test system: canine lens epithelial cells; assay: Canine lens epithelial cells stressed with UV light (Example 3); assay type: cell-based; details: astaxanthin at physiological levels, UV light stress
# Source text: An in vitro experiment may be performed using canine lens epithelial cells supplemented with astaxanthin at physiological levels.
# malondialdehyde = assay: Plasma malondialdehyde (MDA) in exercising sled dogs (HPLC); assay type: in vivo
# Procedure: (§2) Three groups of twelve dogs (mixed breed Alaskan sled dogs (husky pointer crosses)) were fed commercially available Pro Plan® Performance chicken and rice formula dog food as a basal diet, and each group was fed either: a placebo consisting of about 0.5 g maltodextrin, about 2 mg astaxanthin, or about 400 mg Vitamin E (alpha-tocopherol). Pro Plan® dog food is available from Nestle Purina Pet Care Company in St. Louis, Missouri. The dogs were trained three times a week on an exercise wheel for a period of six weeks. On the sixth week, the dogs rested for four days and then exercised three days in a row. Blood samples were collected before exercise on day one, immediately after exercise on day three, and at 24 hours and 48 hours after exercise. Plasma from the blood samples was analyzed for concentrations of malondialdehyde, F-2 isoprostanes, Vitamin E, creatine kinase activity as well as oxygen radical absorption capacity (ORAC).
# (§3) All the dogs were maintained on the same basal diet (Purina Pro Plan® Performance chicken and rice formula) for one month prior to the onset and the entire duration of the experiment. Each dog was fed as an individual to maintain an optimal body condition score of 4/10.
# (§4) Thirty-six sled dogs were housed at the Nestle Purina facility in Salcha, Alaska. The dogs were divided into three groups of 12 dogs so that each group was alike in age, sex and ability distribution. A treatment was randomly assigned to each group by drawing from a hat. Group “A” was assigned about 400 mg Vitamin E/day, group “B” was assigned about 2 mg Astaxanthin/day and group “C” was assigned about 500mg maltodextrin as a placebo. The people responsible for feeding, care, and training of the dogs were blind as to the identity of treatments until the completion of the study. Dogs were treated for six weeks before the onset of testing. They were also trained lightly for two sessions per week during this time period. Training sessions consisted of walking at 14 kilometers per hour for 2 hours in a 40-foot diameter circle tethered to a dog-walking wheel.
# (§5) The testing took place over a six day period. On day one, pre-exercise blood samples were drawn from all the dogs. On day two, the dogs ran twelve km while pulling an all terrain vehicle (ATV) weighing 500 pounds. On day three, the dogs walked 16 miles on the dog wheel. On day four, the dogs again pulled the ATV for a distance of 12 kilometers. Immediately after exercise on day four, blood samples were drawn. Additional blood samples were drawn again at 24 hours and 48 hours after exercise. This sampling schedule was designed to examine changes in the parameters measured during exercise and during recovery. Samples were obtained by jugular venipuncture and collected into evacuated glass tubes containing sodium EDTA as an anticoagulant. Once collected they were kept on ice for not more than 10 minutes before they were centrifuged at 10,000 revolutions per minute (RPM) in 4°C. for a period of 10 minutes. The plasma was transferred into freezer vials where the dead space was replaced with gaseous nitrogen to decrease further oxidation during storage. The vials were then capped and immediately quenched in liquid nitrogen. The vials were recovered from liquid nitrogen and stored at −70°C. until analyzed. Each plasma sample was analyzed for malondialdehyde concentration using a standard HPLC, F2-isoprostane concentration utilizing a mass spectrometer and standard ELISA, Vitamin E concentration utilizing a standard HPLC, and Oxidative Radical Absorbance Capacity (ORAC test kit, Oxford Co.
# (§6) F2 isoprostane and CK data was evaluated using a two way ANOVA for repeated measures. Post hoc comparisons were made using a student's t test corrected for repeated measures by the Bonneferroni method. Statistical significance was set at p<0.05 . The other data was also evaluated using ANOVA. The abbreviation “se” used with respect to the data in the tables below refers to standard error.
# [4] = Plasma total Oxidative Radical Absorptive Capacity (ORAC) in exercising sled dogs; assay type: in vivo; details: for ORAC (index of total anti-oxidant status) improvement by supplementation: any of the time periods measured
# Procedure: as §2, §3, §4, §5, §6
# [5] = dog, in vivo
# Procedure: as §2, with “Blood samples were collected before exercise on day one, immediately after exercise on day three, and at 24 hours and 48 hours after exercise.” left out, “(ORAC). […]” for “(ORAC).”
# The testing took place over a six day period. […] This sampling schedule was designed to examine changes in the parameters measured during exercise and during recovery. […] The vials were recovered from liquid nitrogen and stored at −70°C. until analyzed. Each plasma sample was analyzed for malondialdehyde concentration using a standard HPLC, F2-isoprostane concentration utilizing a mass spectrometer and standard ELISA, Vitamin E concentration utilizing a standard HPLC, and Oxidative Radical Absorbance Capacity (ORAC test kit, Oxford Co. […]
# cataract formation = assay: In vivo cataract formation study, slit-lamp test (Example 4); set-up: species or system dogs; details: treatment with astaxanthin, optionally Vitamin E, lutein, zeaxanthin, zinc; vs control; two year study
# Source text: In a model study, 40 dogs could be chosen and randomly allocated to either the control group or to a treatment group receiving AAFCO recommended levels of antioxidants. The treatment group would receive astaxanthin and may also receive one or more of Vitamin E, lutein, zeaxanthin and zinc.
# [6] = Delayed-type hypersensitivity skin reaction (Example 5); assay type: in vivo, dogs; details: diet containing astaxanthin vs control animals
# Procedure: as §1
# Delayed-type hypersensitivity may also be assessed in animals given a diet supplemented with astaxanthin. In these assays, control animals and animals fed a diet containing astaxanthin are given cutaneous injections of saline, a mitogen or a vaccine of distemper virus. The animals are then assessed to measure the skin reactions to mitogen, virus and control. In animals fed a diet containing astaxanthin, the skin reactions are more robust for virus and mitogen than that found in control animals.
# [7] = Antibody titers against an antigen (Example 5); assay type: in vivo, dogs; details: diet containing astaxanthin vs control animals
# Procedure: as §1
# Control animals and animals fed a diet containing astaxanthin may also be assessed for the robustness of the immune response against an antigen. For example, antibody titers against an antigen may be measured for control animals and animals fed a diet containing astaxanthin.
# creatine kinase = assay: Plasma creatine kinase (CK) in exercising sled dogs; assay type: in vivo
# Procedure: as §2, §3, §4, §5, §6
# F2-isoprostane = assay: Plasma F2-isoprostane (F2I) in exercising sled dogs; assay type: in vivo
# Procedure: as §2, §3, §4, §5, §6
# [8] = test system: peripheral blood mononuclear cells (PBMCs); assay: In vitro lymphoproliferation of stimulated PBMC (Example 5); assay type: cell-based, dogs; details: astaxanthin added to the media during stimulation, vs absence
smiles,measurement,setting,value
"CC1=C(/C=C/C(C)=C/C=C/C(C)=C/C=C/C=C(C)/C=C/C=C(C)/C=C/C2=C(C)C(=O)[C@@H](O)CC2(C)C)C(C)(C)C[C@H](O)C1=O [ATX, astaxanthin]",in vitro oxygen radical absorptive capacity relative to Vitamin E,[1],4 times
same,"isoprostanes, total antioxidant activity and MMPs in plasma and synovial fluid","[2]; 1, 5, 10, 20, or 40 mg per animal per day",decrease
same,"gait, force plate analyses",[2]; compared to controls,significant improvement in gait
same,NK cytotoxicity,NK cells,significantly increased
same,cell death,[3],significantly less cell death
same,free radical formation and lipid peroxidation products,[3],significantly reduce
same,Plasma MDA (mean +/− se),malondialdehyde; 24 hour post,0.95
same,Plasma malondialdehyde compared with placebo and Vitamin E groups,malondialdehyde; 24 hours post exercise,lower than either the placebo value or the Vitamin E value
same,Plasma MDA (mean +/− se),malondialdehyde; 48 hour post,1.44
same,Plasma MDA (mean +/− se),malondialdehyde; Post-ex,1.58
same,"Changes in Plasma MDA over time, Change from Baseline",malondialdehyde; Pre to 24 hour post,−0.485*
same,"Changes in Plasma MDA over time, Change from Baseline",malondialdehyde; Pre to 48 hour Post,−0.004
same,"Changes in Plasma MDA over time, Change from Baseline",malondialdehyde; Pre to Post,0.135
same,Plasma MDA (mean +/− se),malondialdehyde; Pre-ex,1.45
same,Plasma total ORAC (mean +/− se),[4]; 24 hour post,5700
same,Plasma total ORAC (mean +/− se),[4]; 48 hour post,4800
same,Plasma total ORAC (mean +/− se),[4]; Post-ex,7460
same,Plasma total ORAC (mean +/− se),[4]; Pre-ex,7980
same,ORAC (index of total anti-oxidant status) improvement by supplementation,[4],not improved
same,Plasma Vitamin E concentration compared between treatment groups,[5],no significant difference
same,"cataract formation and severity, slit-lamp test",cataract formation,control group has significantly more cataract formation
same,skin reactions to virus and mitogen (delayed-type hypersensitivity),[6],more robust
same,antibody titers against an antigen,[7],higher antibody titers
same,Plasma Creatine Kinase (mean +/− se),creatine kinase; 24 hour post,171
same,Plasma Creatine Kinase (mean +/− se),creatine kinase; 48 hour post,158
same,Plasma Creatine Kinase (mean +/− se),creatine kinase; Post-ex,152
same,Plasma Creatine Kinase (mean +/− se),creatine kinase; Pre-ex,109
same,CK values compared with the Vitamin E group,creatine kinase; all time periods but 24 hours post-exercise,lower
same,Plasma F2 Isoprostane concentration (mean +/− se),F2-isoprostane; 24 hour post,90
same,Plasma F2 Isoprostane concentration (mean +/− se),F2-isoprostane; 48 hour post,66
same,Plasma F2 Isoprostane concentration (mean +/− se),F2-isoprostane; Post-ex,52
same,Plasma F2 Isoprostane concentration (mean +/− se),F2-isoprostane; Pre-ex,167
same,F2I values compared to the placebo group,F2-isoprostane; immediately post-exercise and at 24 hours post-exercise,lower
same,proliferation of PBMC,[8],increases proliferation of cells significantly more
"Cc1c(C)c2c(c(C)c1O)CC[C@@](C)(CCC[C@H](C)CCC[C@H](C)CCCC(C)C)O2 [Vitamin E, alpha-tocopherol, reference compound]",Plasma MDA (mean +/− se),malondialdehyde; 24 hour post,1.44
same,Plasma MDA (mean +/− se),malondialdehyde; 48 hour post,1.44
same,Plasma MDA (mean +/− se),malondialdehyde; Post-ex,1.17
same,"Changes in Plasma MDA over time, Change from Baseline",malondialdehyde; Pre to 24 hour post,−0.071
same,"Changes in Plasma MDA over time, Change from Baseline",malondialdehyde; Pre to 48 hour Post,−0.069
same,"Changes in Plasma MDA over time, Change from Baseline",malondialdehyde; Pre to Post,−0.336*
same,Plasma MDA (mean +/− se),malondialdehyde; Pre-ex,1.51
same,malondialdehyde concentrations compared to the placebo group,malondialdehyde; during exercise,decreased
same,Plasma total ORAC (mean +/− se),[4]; 24 hour post,7590
same,Plasma total ORAC (mean +/− se),[4]; 48 hour post,4840
same,Plasma total ORAC (mean +/− se),[4]; Post-ex,5850
same,Plasma total ORAC (mean +/− se),[4]; Pre-ex,7480
same,ORAC (index of total anti-oxidant status) improvement by supplementation,[4],not improved
same,Plasma Vitamin E concentration compared between treatment groups,[5],greatest
same,Plasma Creatine Kinase (mean +/− se),creatine kinase; 24 hour post,184
same,Plasma Creatine Kinase (mean +/− se),creatine kinase; 48 hour post,204
same,Plasma Creatine Kinase (mean +/− se),creatine kinase; Post-ex,208
same,Plasma Creatine Kinase (mean +/− se),creatine kinase; Pre-ex,139
same,Plasma F2 Isoprostane concentration (mean +/− se),F2-isoprostane; 24 hour post,130
same,F2I value compared to the placebo value,F2-isoprostane; 24 hour post-exercise,lower
same,Plasma F2 Isoprostane concentration (mean +/− se),F2-isoprostane; 48 hour post,78
same,Plasma F2 Isoprostane concentration (mean +/− se),F2-isoprostane; Post-ex,223
same,Plasma F2 Isoprostane concentration (mean +/− se),F2-isoprostane; Pre-ex,144
